The values that follow come from patent publication US20100168112A1, “2-Substituted and 4-substituted aryl nitrone compounds” (RENOVIS, INC., priority 2004, published 2010).

pEC50: −log10 of the molar value. Counter-ions that a name gives are not always drawn. A value given as a limit tells only on which side of the number the result lay.

Series [1] in a line: DPPH free radical-scavenging/antioxidant assay. Format: biochemical. Conditions: 50 μM DPPH in 80% methanol; 24 h time point; read-out: EC50 (concentration at which a compound reduces by 50% the peak absorbance of DPPH at 520 nm). Here is the method:
Nitrone compounds of the present invention were tested for their free-radical scavenging/antioxidant activity in an in vitro assay that is accepted by those skilled in the art as a model for conditions involving the generation of free radicals. The assay is based on a reaction between a free-radical donor, 2,2-diphenyl-1-picrylhydrazyl (DPPH), and a radical scavenger/antioxidant to be tested for free-radical scavenging activity. Upon donation of the free-radical electron to the purported radical scavenger, the peak visible absorbance of DPPH (515-520 nm) decreases so that optical density readings at this part of the visual spectrum reflect the progression of the following reaction:
where AH is a hypothetical radical scavenger/antioxidant. The assay is based on a protocol originally detailed in Brand-Williams, W. et al., 1995, Use of a Free Radical Method to Evaluate Antioxidant Activity, Lebensm. Wiss. Technol., 28:25-30, with further modifications described in L. R. Fukumoto and G. Mazza, 2000, Assessing Antioxidant and Prooxidant Activities of Phenolic Compounds, J. Agric. Food Chem., 48:3597-3604.
The antioxidant assay was performed using Perkin-Elmer 96-well, clear-bottom, black-wall plates (ordered from E & K Scientific Products) and a Tecan Safire absorbance plate reader. The positive controls were Trolox (6-hydroxy-2,5,7,8-tetramethylchromane-2-carboxylic acid, Sigma-Aldrich), BHA (2(3)-tert-butylhydroquinone monomethyl ether, Sigma-Aldrich), PBN (C-(phenyl)-N-(tert-butyl)nitrone, Sigma-Aldrich) and S-PBN (C-(2-sulfophenyl)-N-(tert-butyl)nitrone, sodium salt, prepared according to E. G. Janzen and R. V. Shetty, 1979, Tetrahedron Lett., 35: 3229-32), and the negative control (i.e., vehicle) was DMSO. In brief, 2 μL of 100× DMSO stock of the desired final concentration of each control or nitrone compound to be tested in the same batch was added to a separate well. To each well was then added 198 μL of a freshly made 50 μM DPPH (Sigma-Aldrich) solution in 80% methanol using a multi-channel pipette. The absorbance was immediately read on the plate reader at 520 nm and thereafter read periodically to assess kinetics until all reactions reached completion (i.e., steady state). Since the steady-state point was 24 h, the assay results are shown from the 24 h time point. The absorbance at 520 nm (OD) was plotted versus the concentrations of the controls and nitrone compounds to assess dose-response and interpolate the EC50 values of the controls and test compounds.

Series [2] is described as follows: Pharmacokinetic evaluation following intravenous and oral administration in rats. Conditions: male, Sprague-Dawley; for Cmax / Tmax / bioavailability: 5 mg/kg; for Cmax: rat plasma; for Cmax / Tmax: oral gavage, 2 mg/mL at 2.5 mL/kg; for clearance / Vd / Tmax / bioavailability / half-life: plasma, rat; for clearance / Vd / half-life: 1 mg/kg; for clearance / Vd: intravenous administration, 1 mg/mL at 1.0 mL/kg; for clearance: read-out: CI (clearance) (converted); for Vd: read-out: Vd (volume of distribution); for bioavailability: po 2 mg/mL at 2.5 mL/kg vs iv 1 mg/mL at 1.0 mL/kg, dose-normalized, read-out: F (%) oral bioavailability; for half-life: intravenous, read-out: T1/2 elimination half life (converted). Format: in vivo. The method, then: Male Sprague-Dawley rats were given at least 24 hours acclimation before experiment initiation. During acclimation period, all animals received food and water ad libitum. However, food (not water) was removed from the animal's cages up to 12 hours before initiation of the experiment. During the first 4 hours of experimentation, the animals received only water ad libitum. Two to three animals for iv and three animals for oral administration were tested. For iv formulation nitrone compounds of this invention were dissolved (1 mg/mL) in a mixture of 5% dimethyl acetamide (v/v), 0 to 4% Tween 80 (v/v), 10 to 40% PEG 400 (v/v) and the rest percentage of water (v/v). For oral formulation nitrone compounds of this invention were dissolved (2 mg/mL) in a mixture of 4% of 10% Tween in water and 96% of 0.5% carboxymethyl cellulose (medium viscosity) in water; or 4% of 10% Tween in water, 48% of 0.5% carboxymethyl cellulose (medium viscosity) in water, and 48% of 0.5% Hydroxypropyl Methylcellulose/0.2% Sodium Lauryl Sulfate in water. These formulations were stored at 5° C. until the experiment. Formulations were then stir-mixed at least half an hour before dosing. Exactly 200 μL of each left-over formulation was diluted with CH3CN/H2O for concentration analysis. The animals were weighed before dosing. The body weight was used to calculate the true dose for each animal:
IV dosing: • Dose volume (mL)=1.0 mL/kg The intravenous dose was administered through the jugular vein catheter or tail vein in less than 1 minute.
PO dosing: • Dose volume (mL)=2.5 mL/kg The oral dose was administered by oral gavage.
For IV dosing, blood samples were collected (using a pre-heparinized syringe) via the carotid artery or jugular vein catheter at t=2, 5, 15, 30, 60, 120, 180, 360, and 480 minutes post dosing. For PO dosing, blood samples were collected (using a pre-heparinized syringe) via the carotid artery or jugular vein catheter before dosing and at t=5, 15, 30, 60, 120, 180, 360, and 480 minutes post dosing. For some nitrone compounds a 1440 minutes (24 hours) sample was also taken for both IV and PO administrations. About 250 μL of blood was obtained at each time point from the animals. Equal volumes of 0.9% normal saline were replaced to prevent dehydration. The whole blood samples were maintained on ice until centrifugation. Blood samples were then centrifuged at 14,000 rpm for 10 minutes at 4° C. and the upper plasma layer transferred into a clean vial and stored at −80° C. The resulting plasma samples were then analyzed by mass spectroscopy using standard methods.
All the samples from above assays were analyzed on a PE-Sciex API 3000 triple quadrupole with a Turbo Ion Spray source. Nitrone compounds of this invention were separated from the matrix via a linear gradient reverse-phase chromatography using a C18 column, such as Thermo BDS Hypersil C18 (100×4.6 mm, 5 micron particle, 120A pore size). The mobile Phases were:
Nitrone compounds were detected by the mass spectrometer in the positive ion multiple reaction monitoring mode (MRM). For quantitative analysis, a standard curve was prepared by spiking a stock solution of the nitrone compound to the appropriate matrix to achieve a quantitation curve range and analyzed the standards in the same manner as the samples.
Pharmacokinetic parameters of the aryl nitrone compounds were determined by a noncompartmental analysis using WinNonlin-Pro (Version 4.1, Pharsight Corporation). Average and standard deviation of the parameters were calculated using standard formulas in Microsoft Excel.

On to “2(3)-tert-butylhydroquinone monomethyl ether [BHA, reference compound]”, for which the pEC50 in series [1] was above 5.00.
`COC(=O)c1ccccc1/C=[N+](\[O-])C(C)(C)C` [Compound 1, N-(tert-Butyl)-C[2-(methoxycarbonyl)phenyl]nitrone]: in series [1], the pEC50 was 3.00 to 3.30.
With `COC(=O)c1ccccc1/C=[N+](\[O-])C1CCCCC1` [Compound 2, N-Cyclohexyl-C-[2-(methoxycarbonyl)phenyl]nitrone], the pEC50 in series [1] was below 3.00.
In the case of `COC(=O)c1ccccc1/C=[N+](\[O-])Cc1ccccc1` [Compound 3, N-Benzyl-C-[2-(methoxycarbonyl)phenyl]nitrone], the pEC50 in series [1] is 3.00 to 3.30.
Same read-out and setting: the figure for `COC(=O)c1c(/C=[N+](\[O-])C(C)(C)C)cc(OC)cc1OC` [Compound 4, N-(tert-Butyl)-C-[2-(methoxycarbonyl)-3,5-dimethoxyphenyl]-nitrone] is 3.30 to 4.00.
On to `COC(=O)c1c(/C=[N+](\[O-])C2CCCCC2)cc(OC)cc1OC` [Compound 5, N-Cyclohexyl-C-[2-(methoxycarbonyl)-3,5-dimethoxyphenyl]-nitrone], for which the pEC50 in series [1] is 3.30 to 4.00.
With `COC(=O)c1c(/C=[N+](\[O-])Cc2ccccc2)cc(OC)cc1OC` [Compound 6, N-Benzyl-C-[2-(methoxycarbonyl)-3,5-dimethoxyphenyl]-nitrone], the pEC50 in series [1] is 3.30 to 4.00.
Turning to `CC(C)(C)/[N+]([O-])=C/c1ccccc1C(=O)O` [Compound 7, N-(tert-Butyl)-C-(2-carboxyphenyl)nitrone], the pEC50 in series [1] was 3.30 to 4.00.
For `O=C(O)c1ccccc1/C=[N+](\[O-])C1CCCCC1` [Compound 8, N-Cyclohexyl-C-(2-carboxyphenyl)nitrone], the pEC50 in series [1] is 4.00 to 5.00.
Still for that read-out and setting: the figure for `O=C(O)c1ccccc1/C=[N+](\[O-])Cc1ccccc1` [Compound 9, N-Benzyl-C-(2-carboxyphenyl)nitrone] is 4.00 to 5.00; for `COc1cc(/C=[N+](\[O-])C(C)(C)C)c(C(=O)O)c(OC)c1` [Compound 10, N-(tert-Butyl)-C-(2-carboxy-3,5-dimethoxyphenyl)nitrone] it is 3.00 to 3.30; for `COc1cc(/C=[N+](\[O-])C2CCCCC2)c(C(=O)O)c(OC)c1` [Compound 11, N-Cyclohexyl-C-(2-carboxy-3,5-dimethoxyphenyl)nitrone] it is 4.00 to 5.00.
In the case of `COc1cc(/C=[N+](\[O-])Cc2ccccc2)c(C(=O)O)c(OC)c1` [Compound 12, N-Benzyl-C-(2-carboxy-3,5-dimethoxyphenyl)nitrone], the pEC50 in series [1] was 4.00 to 5.00.
`CN(C)C(=O)c1ccccc1/C=[N+](\[O-])C(C)(C)C` [Compound 16, N-(tert-Butyl)-C-[2-(N,N-dimethylcarbamoyl)phenyl]nitrone]: in series [1], the pEC50 is 3.30 to 4.00.
As for `CN1CCN(S(=O)(=O)c2ccc(/C=[N+](\[O-])C(C)(C)C)cc2)CC1` [Compound 22, N-(tert-Butyl)-C-[4-(4-methyl-piperazine-1-sulfonyl)phenyl]nitrone], in series [2], the Cmax (usually the highest concentration seen after dosing) is 703 ng/mL; the clearance is 36.8 mL/min/kg; the Vd is 1.83 L/kg; the time of peak concentration (Tmax) (in general, the time from dosing to the highest level) is 14.4 min. In addition, in series [2], the bioavailability (commonly dose-corrected exposure relative to a reference, in per cent) is 15.6% and the half-life was 34.2 min. The pEC50 in series [1] was below 3.00.
Regarding `CCNS(=O)(=O)c1ccc(/C=[N+](\[O-])C(C)(C)C)cc1` [Compound 24, N-(tert-Butyl)-C-[4-(ethylsulfamoyl)phenyl]nitrone], in series [2], the Cmax was 198 ng/mL, the clearance was 59 mL/min/kg, the Vd is 2.58 L/kg and the Tmax stood at 12 min. Besides, in series [2], the bioavailability stood at 7.19% and the half-life was 31.2 min. For the same compound, in series [1], the pEC50 is below 3.00.
In the case of `CC(C)(C)/[N+]([O-])=C/c1ccc(S(=O)(=O)Nc2ccc(F)cc2)cc1` [Compound 25, N-(tert-Butyl)-C-[4-(4-fluoro-phenylsulfamoyl)phenyl]nitrone], in series [2], the concentration peaked (Cmax) at 10 ng/mL, the clearance was 29.3 mL/min/kg, the Vd amounted to 1.12 L/kg and the Tmax came out at 15 min. In series [2], the bioavailability amounted to 0.85% and the half-life is 25.8 min. In addition, in series [1], the pEC50 is below 3.00.
`COC(=O)c1[nH]c2ccccc2c1/C=[N+](\[O-])C(C)(C)C` [Compound 77, N-(tert-Butyl)-C-[2-(methoxycarbonyl)-1H-indol-3-yl]nitrone]: in series [1], the pEC50 was below 3.00.
Consider `COC(=O)c1[nH]c2ccccc2c1/C=[N+](\[O-])C1CCCCC1` [Compound 78, N-Cyclohexyl-C-[2-(methoxycarbonyl)-1H-indol-3-yl]nitrone], for which, in series [1], the pEC50 was below 3.00.
With `COC(=O)c1[nH]c2ccccc2c1/C=[N+](\[O-])Cc1ccccc1` [Compound 79, N-Benzyl-C[2-(methoxycarbonyl)-1H-indol-3-yl]nitrone], the pEC50 in series [1] was below 3.00.
On to `CC(C)(C)[N+]([O-])=Cc1ccccc1` [PBN, C-(phenyl)-N-(tert-butyl)nitrone, reference compound], for which the pEC50 in series [1] is below 3.00.
For `CC(C)(C)[N+]([O-])=Cc1ccccc1S(=O)(=O)O` [SPBN, C-(2-sulfophenyl)-N-(tert-butyl)nitrone, sodium salt, reference compound], in series [1], the pEC50 is below 3.00.
With `Cc1c(C)c2c(c(C)c1O)CCC(C)(C(=O)O)O2` (centres unmarked) [Trolox, 6-hydroxy-2,5,7,8-tetramethylchromane-2-carboxylic acid, reference compound], in series [1], the pEC50 is above 5.00.
